The values below come from the supplement of paper PMC11061612.

Holding throughout (assay): Bliss excess, mean over the matrix (fraction); higher = more synergy
Test [1] deals with 639-V (Bladder Carcinoma). In short, it runs like this: (§1)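 Bliss excess equals the observed combination effect minus the expected value EA + EB − EA·EB, where EA and EB are the effects of each agent alone. Combination Emax is the second-highest inhibition within the matrix. Inhibition was scaled from CellTiter-Glo 2.0 luminescence, with 0 set by vehicle wells and 1 by blank wells, after 72 hours of two-drug dosing of cells plated in 1536-well plates.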

The subject of test [2] is CTB-1 (B-Cell Non-Hodgkin's Lymphoma). In short, it runs like this:
as §1

Test [3] relates to EN (Endometrial Carcinoma). In short, it runs like this:
as §1

Test [4] has as its system HCC-15 (Squamous Cell Lung Carcinoma). The gist of the method: as §1
Test [5] relates to KYSE-410 (Esophageal Squamous Cell Carcinoma). The gist of the method:
as §1

In test [6] the test system is LB771-HNC (Head and Neck Carcinoma). In short, it runs like this: as §1
The subject of test [7] is LU-139 (Small Cell Lung Carcinoma). In short, it runs like this:
as §1

The test system of test [8] is LoVo (Colorectal Carcinoma). In short, it runs like this: as §1
Test [9] relates to MHH-PREB-1 (B-Cell Non-Hodgkin's Lymphoma). The gist of the method:
as §1

The subject of the next test is NB14 (Neuroblastoma). In short, it runs like this:
as §1

A further test has as its system NCI-H2795 (Mesothelioma). The gist of the method: as §1
A further test relates to NCI-H28 (Mesothelioma). The gist of the method:
as §1

The subject of test [10] is NCI-H747 (Colorectal Carcinoma). The gist of the method:
as §1

The test system of test [11] is OC-314 (Ovarian Carcinoma). In short, it runs like this: as §1
Test [12] concerns RKO (Colorectal Carcinoma). In short, it runs like this:
as §1

In another test the test system is SH-4 (Melanoma). In short, it runs like this:
as §1

In test [13] the test system is SW1271 (Small Cell Lung Carcinoma). In short, it runs like this: as §1
In test [14] the test system is SW626 (Colorectal Carcinoma). The gist of the method:
as §1

The subject of test [15] is TE-4 (Esophageal Squamous Cell Carcinoma). The gist of the method: as §1
Test [16] concerns UMC-11 (Other Solid Carcinomas). The gist of the method:
as §1

For the molecule `CC(=O)Nc1cccc(-n2c(=O)n(C3CC3)c(=O)c3c(Nc4ccc(I)cc4F)n(C)c(=O)c(C)c32)c1` [Trametinib] + Cc1nc(-c2cn3c(n2)-c2ccc(-c4cnn(C(C)(C)C(N)=O)c4)cc2OCC3)n(C(C)C)n1 [Taselisib] (first compound max 1 µM, 7x7, partner max 10 µM), the Bliss excess was found to be 0.068 in test [1]; 0.0136 in test [2]; 0.0161 in test [3]; 0.187 in [4]; 0.168 in test [5]; 0.125 in test [6]. In addition, the Bliss excess was -0.0203 in test [7]; -0.0092 in test [8]; 0.0277 in test [9]; 0.0702 with NB14 (Neuroblastoma); 0.0749 with NCI-H2795 (Mesothelioma); 0.0616 with NCI-H28 (Mesothelioma). The Bliss excess in test [10] was -0.0203; in [11], 0.066; in test [12], 0.219; with SH-4 (Melanoma) it was 0.0172; in [13] it was 0.0896; in test [14] it was 0.0644. Also, the results for the Bliss excess in test [15] and in test [16] were 0.0758 and 0.0075, respectively.
As for `Cc1c2c(nn1C)CSCc1cc(n(C)n1)CSc1cc(c3ccccc3c1)OCCCc1c(C(=O)O)n(C)c3c-2c(Cl)ccc13` [AZD5991] + CN(C)CCCOc1ccc(-c2ccc3ncc4c(c3c2)n(C2CCOCC2)c(=O)n4C)cn1 [AZD0156] (first compound max 1 µM, 7x7, partner max 1 µM), the Bliss excess is -0.0065 in [1]; -0.0457 in test [2]; -0.024 in test [3]; 0.0213 in test [4]; -0.028 in test [5]; 0.0096 in test [6]. For the same molecule, the Bliss excess in [7] is -0.0236; in test [8] it was -0.0005; in test [9], 0.0081; in the test on NB14 (Neuroblastoma) it was 0.0091; in the test on NCI-H2795 (Mesothelioma), 0.0192; in the test with NCI-H28 (Mesothelioma) it was -0.0024. Besides, the Bliss excess in test [10] was -0.0289; in test [11], 0.0093; in test [12], 0.0041; in the test on SH-4 (Melanoma), 0.0088; in test [13], 0.0034; in test [14], 0.0094. Moreover, the results for the Bliss excess in [15] and in test [16] were 0.0186 and 0.0551, respectively.
As for `Cc1c2c(nn1C)CSCc1cc(n(C)n1)CSc1cc(c3ccccc3c1)OCCCc1c(C(=O)O)n(C)c3c-2c(Cl)ccc13` [AZD5991] + C1CN(CCC1(C(=O)N[C@@H](CCO)C2=CC=C(C=C2)Cl)N)C3=NC=NC4=C3C=CN4 [Capivasertib] (first compound max 1 µM, 7x7, partner max 3 µM), the Bliss excess was -0.0036 in [1]; -0.0048 in [2]; -0.0547 in test [3]; 0.0441 in test [4]; -0.0218 in test [5]; 0.0612 in [6]. For the same molecule, the Bliss excess in test [7] is -0.0056; in test [8] it was -0.069; in test [9], -0.0283; in the test on NB14 (Neuroblastoma) it was 0.0283; in the test with NCI-H2795 (Mesothelioma), 0.119; with NCI-H28 (Mesothelioma), -0.0315. The Bliss excess in test [10] was 0.0106; in [11], 0.0362; in test [12], 0.0296; with SH-4 (Melanoma), -0.0029; in [13] it was -0.0664; in test [14] it was -0.018. In addition, the Bliss excess in test [15] amounted to 0.0626; in [16], 0.0253.
Regarding `CN(CCO)CC[C@H](CSc1ccccc1)Nc1ccc(S(=O)(=O)NC(=O)c2ccc(N3CCC([C@@H](O)c4ccccc4-c4ccc(Cl)cc4)CC3)cc2)cc1S(=O)(=O)C(F)(F)F` [AZD4320] + CN(C)CCCOc1ccc(-c2ccc3ncc4c(c3c2)n(C2CCOCC2)c(=O)n4C)cn1 [AZD0156] (first compound max 1 µM, 7x7, partner max 1 µM), the Bliss excess in test [1] is -0.0209; in test [2] it was -0.0376; in test [3], -0.0085; in test [4] it was -0.0137; in test [5], -0.0482; in test [6], -0.0454. Further, the Bliss excess in [7] was -0.0164; in [8] it was -0.0622; in [9] it was 0.0075; with NB14 (Neuroblastoma), 0.061; in the test with NCI-H2795 (Mesothelioma), -0.0596; in the test with NCI-H28 (Mesothelioma) it was -0.0693. The Bliss excess in [10] was -0.0546; in test [11], -0.0231; in test [12], -0.0253; in the test with SH-4 (Melanoma), -0.0238; in test [13], -0.0413; in test [14], -0.0545. The figures for the Bliss excess in test [15] and in [16] were -0.0285 and -0.0015, respectively.
In the case of `Cc1cc2ncnn2cc1Nc1ncc2c(n1)n(C1CCOCC1)c(=O)n2C` [AZD7648] + C[C@@H]1COCCN1C2=NC(=NC(=C2)C3(CC3)[S@](=N)(=O)C)C4=C5C=CNC5=NC=C4 [AZD6738] (first compound max 10 µM, 7x7, partner max 10 µM), the Bliss excess in [1] was 0.0317; in test [2] it was 0.0098; in test [3], -0.0485; in [4] it was 0.0093; in test [5], 0.0285; in test [6], 0.0039. Moreover, the Bliss excess in test [7] is 0.0121; in [8] it was -0.0058; in test [9], 0.0336; in the test on NB14 (Neuroblastoma) it was -0.0026; in the test with NCI-H2795 (Mesothelioma), 0.0603; in the test with NCI-H28 (Mesothelioma) it was 0.081. Moreover, the Bliss excess is 0.0005 in test [10]; 0.0565 in [11]; 0.0059 in [12]; -0.0043 in the test on SH-4 (Melanoma); 0.0274 in test [13]; 0.0302 in test [14]. In addition, the Bliss excess in test [15] was found to be 0.054; in test [16], 0.0002.
With `CC1(C)CCC(CN2CCN(c3ccc(C(=O)NS(=O)(=O)c4ccc(NCC5CCOCC5)c([N+](=O)[O-])c4)c(Oc4cnc5[nH]ccc5c4)c3)CC2)=C(c2ccc(Cl)cc2)C1` [Venetoclax] + C[C@@H](Nc1cc(F)cc(F)c1)c1cc(C(=O)N(C)C)cc2c(=O)cc(N3CCOCC3)oc12 [AZD8186] (first compound max 1 µM, 7x7, partner max 3 µM), the Bliss excess in test [1] is 0.0371; in [2] it was -0.0261; in test [3] it was -0.0384; in test [4] it was 0.0109; in test [5] it was -0.0397; in test [6], 0.0083. Moreover, the Bliss excess in test [7] was 0.0371; in [8] it was 0.029; in test [9] it was -0.0297; with NB14 (Neuroblastoma) it was -0.0644; in the test with NCI-H2795 (Mesothelioma), -0.0218; in the test with NCI-H28 (Mesothelioma), -0.0502. Besides, the Bliss excess in [10] was 0.0197; in test [11], -0.05; in test [12], -0.049; in the test on SH-4 (Melanoma), -0.0214; in test [13], -0.055; in [14], -0.0258. Also, the figures for the Bliss excess in [15] and in [16] were -0.0315 and -0.0263, respectively.
For the molecule `Cc1c2c(nn1C)CSCc1cc(n(C)n1)CSc1cc(c3ccccc3c1)OCCCc1c(C(=O)O)n(C)c3c-2c(Cl)ccc13` [AZD5991] + CC1(C)CCC(CN2CCN(c3ccc(C(=O)NS(=O)(=O)c4ccc(NCC5CCOCC5)c([N+](=O)[O-])c4)c(Oc4cnc5[nH]ccc5c4)c3)CC2)=C(c2ccc(Cl)cc2)C1 [Venetoclax] (first compound max 1 µM, 7x7, partner max 1 µM), the Bliss excess in test [1] is 0.0009; in test [2], -0.0491; in test [3], -0.0236; in test [4], -0.0271; in test [5] it was -0.0393; in test [6], 0.0035. The Bliss excess is 0.0307 in test [7]; -0.0217 in test [8]; -0.0301 in test [9]; 0.255 in the test on NB14 (Neuroblastoma); -0.0423 in the test on NCI-H2795 (Mesothelioma); -0.0812 with NCI-H28 (Mesothelioma). For the same molecule, the Bliss excess in test [10] was -0.0438; in test [11], -0.0045; in test [12], 0.0107; in the test on SH-4 (Melanoma), 0.0457; in test [13], -0.0504; in test [14], -0.0064. Moreover, the Bliss excess in test [15] was 0.0017; in test [16], 0.0749.
